Measured values taken from PubChem BioAssay AID1963854 (Molecular Pharmacology Branch, DTP, NCI, 2024).
Values joined by “and” are separate entries in the source; they are usually repeats but may differ in a detail not shown here. Identical values can stand only once.

Tested on: 186277-243-T-J2-PDC complex spheroid viability
Experiment: Anticancer human tumor 186277-243-T-J2-PDC patient-derived colon adenocarcinoma cell line growth inhibition [POLQ]
Details: for viability, T/C: stronger effect = lower value
Description: Multicellular complex tumor spheroid response to Polymerase (POL) inhibitors (novobiocin, ART-558, RP6685) in combination with a variety of drugs and investigational agents in selected tumor cell lines
The POL inhibitors (novobiocin, ART-558, and RP6685) were evaluated both individually and in combination with standard of care and investigational anticancer small molecules within a complex spheroid model of solid tumors. . Complex spheroids include a stromal component modeled by human endothelial cells (HUVEC) and fibroblasts modeled by human mesenchymal stem cells (MSCs). The concentration ranges selected for each drug and investigational agent were based upon clinically achievable concentrations if the clinical Cmax of the agent was known.
Compounds. The drugs and investigational agents: novobiocin (NSC847541), ART-558 (NSC835418), RP-6685 (NSC848927), peposertib (NSC802822), ceralasertib (NSC780249), elimusertib (NSC800525), camonsertib (NSC841442), AZD-1390 (NSC803789), olaparib (NSC753686), talazoparib (NSC767125), rucaparib (NSC756644), sotorasib (NSC818433), MRTX-1133 (NSC836407), SN-38 (NSC673596), topotecan (NSC609699), epotoside (NSC141540), doxorubicin (NSC123127), gemcitabine (NSC613327), 5-fluorouracil (NSC19893), paclitaxel (NSC125973), vemurafenib (NSC761431), MSA-2 (NSC828583), SN-011 (NSC837082), adavosertib (NSC754352), prexasertib (NSC758257), carboplatin (NSC241240) and oxaliplatin (NSC266046), were obtained from the National Cancer Institute (NCI) Developmental Therapeutics Program Chemical Repository (21). The FDA-approved anticancer drug set is available from the Developmental Therapeutics Program at https://dtp.cancer.gov/organization/dscb/obtaining/. […] The stock solutions were prepared in dimethyl sulfoxide (DMSO, Sigma-Aldrich, St. Louis, MO, cat. D2650), except for the platinum compounds which were prepared in saline (Quality Biological, Gaithersburg, MD, cat. 114-055-101), at 800-fold the tested concentration and stored at -70 degrees C prior to their use. All drugs and investigational agents were tested over a range starting from a high concentration at or near the clinical Cmax and decreasing in half-log increments. If the clinical Cmax for an agent had not been determined, the highest concentration tested was 10 microM, except for SN-38, which was tested at a high concentration of 1 microM.
Cell Culture. All cells were maintained in an incubator at 37 degrees C and 5% CO2 with 95% humidity. The PDC lines were cultured according to standard operating procedures established by the NCI PDMR (https://pdmr.cancer.gov). Table 3 of the manuscript, lists the cell lines along with the number of the three cell types plated to form the mct-spheroids and media for tumor cell growth. After thawing, all PDC lines, except 997537-175-T-J1-PDC and 415267-285-R-J2-PDC, were cultured in Matrigel-coated flasks prepared with a working solution of 1X Ham's F-12 nutrient mix, without supplementation (Thermo Fisher Scientific, cat. 11765054), 100 U/mL penicillin-streptomycin (Thermo Fisher Scientific, cat. 15140122), and 2.5% Matrigel (Corning Inc., Corning, NY, cat. 354248) for the first three passages. The two PDC lines 997537-175-T-J1-PDC and 415267-285-R-J2-PDC were cultured on uncoated flasks. The 857933-349-R-J2-PDC line was cultured in 6C/Colon 1B media containing advanced DMEM/F-12 (Thermo Fisher Scientific, cat. 12634028), 10 mM HEPES (Thermo Fisher Scientific, cat. 15630080), 1X GlutaMAX supplement (Thermo Fisher Scientific, cat. 35050061), 0.1 mg/mL primocin (InvivoGen, San Diego, CA, cat. ant-pm-2), 10% defined fetal bovine serum, heat inactivated (HyClone Laboratories Inc., Logan, UT, cat. SH30070.03HI), 50% L-WRN conditioned media (ATCC, cat. CRL-3276), 1.25 mM N-Acetyl-L-cysteine (Sigma-Aldrich, cat. A9165), 10 mM nicotinamide (Sigma-Aldrich, cat. N0636), 1X B-27 supplement (Thermo Fisher Scientific, cat. 17504044), 1X N-2 supplement (Thermo Fisher Scientific, cat. […]
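Note: spheroids exposed to compounds for seven days.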
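Throughout, for viability, T/C: 100% = DMSO vehicle control viability.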

Q: `CCc1cc2c(N3CCc4c(cc(Cn5ccnc5)cc4-c4cn(C)nc4C(F)(F)F)C3=O)cc(C)nc2c(OC)n1` was tested. Which viability, T/C (compound 0.0316 µM) did it give?
A: Its viability, T/C is 100% and 88.7% and 82.3%.

Q: And the viability, T/C (compound 0.1 µM)?
A: The viability, T/C was 110% and 93% and 96.3%.

Q: What about the viability, T/C (compound 0.316 µM) of the same compound?
A: Its viability, T/C is 101% and 96.8% and 86.6%.

Q: What about the viability, T/C (compound 1 µM) of the same compound?
A: The viability, T/C was 104% and 106% and 86.8%.

Q: And the viability, T/C (compound 3.16 µM)?
A: Its viability, T/C is 86% and 109% and 103%.

Q: What about the viability, T/C (compound 10 µM) of the same compound?
A: The viability, T/C was 76.3% and 99.6% and 88.1%.

Q: And the IC50 (curve of compound)?
A: The IC50 was > 10000 nM.

Q: `Cn1ncnc1[C@H]1c2n[nH]c(=O)c3cc(F)cc(c23)N[C@@H]1c1ccc(F)cc1` was tested. Which viability, T/C (compound 0.000316 µM) did it give?
A: Its viability, T/C is 102% and 96.7% and 107%.

Q: What about the viability, T/C (compound 0.001 µM) of the same compound?
A: Its viability, T/C is 100% and 97.4% and 94.3%.

Q: And the viability, T/C (compound 0.00316 µM)?
A: Its viability, T/C is 104% and 101% and 97%.

Q: And the viability, T/C (compound 0.01 µM)?
A: Its viability, T/C is 118% and 100% and 105%.

Q: And the viability, T/C (compound 0.0316 µM)?
A: Its viability, T/C is 118% and 137% and 114%.

Q: What about the viability, T/C (compound 0.1 µM) of the same compound?
A: Its viability, T/C is 109% and 124% and 103%.

Q: And the IC50 (curve of compound)?
A: The IC50 was > 100 nM.

Q: `CC(=O)O[C@H]1C(=O)[C@@]2(C)[C@H]([C@H](OC(=O)c3ccccc3)[C@]3(O)C[C@H](OC(=O)[C@H](O)[C@@H](NC(=O)c4ccccc4)c4ccccc4)C(C)=C1C3(C)C)[C@]1(OC(C)=O)CO[C@@H]1C[C@@H]2O` + COC1C(OC(N)=O)C(O)C(Oc2ccc3c(O)c(NC(=O)c4ccc(O)c(CC=C(C)C)c4)c(=O)oc3c2C)OC1(C)C was tested. Which IC50 (curve of first compound, second compound 0.0316 µM) did it give?
A: Its IC50 is < 9.49 nM.

Q: And the IC50 (curve of first compound, second compound 0.1 µM)?
A: The IC50 was < 9.49 nM.

Q: And the IC50 (curve of first compound, second compound 0.316 µM)?
A: The IC50 was < 9.49 nM.

Q: What about the IC50 (curve of first compound, second compound 1 µM) of the same compound?
A: Its IC50 is < 9.49 nM.

Q: What about the IC50 (curve of first compound, second compound 3.16 µM) of the same compound?
A: Its IC50 is < 9.49 nM.

Q: What about the IC50 (curve of first compound, second compound 10 µM) of the same compound?
A: The IC50 was < 9.49 nM.

Q: What about the viability, T/C (second compound 0.0316 µM, first compound 0.00949 µM) of the same compound?
A: The viability, T/C was 18.8%.

Q: What about the viability, T/C (second compound 0.0316 µM, first compound 0.03 µM) of the same compound?
A: The viability, T/C was 6.51%.

Q: And the viability, T/C (second compound 0.0316 µM, first compound 0.0949 µM)?
A: Its viability, T/C is 3.77%.

Q: What about the viability, T/C (second compound 0.0316 µM, first compound 0.3 µM) of the same compound?
A: The viability, T/C was 2.87%.

Q: What about the viability, T/C (second compound 0.0316 µM, first compound 0.949 µM) of the same compound?
A: Its viability, T/C is 2.1%.

Q: What about the viability, T/C (second compound 0.0316 µM, first compound 3 µM) of the same compound?
A: The viability, T/C was 2.04%.

Q: And the viability, T/C (second compound 0.1 µM, first compound 0.00949 µM)?
A: Its viability, T/C is 17.1%.

Q: And the viability, T/C (second compound 0.1 µM, first compound 0.03 µM)?
A: The viability, T/C was 5.55%.

Q: And the viability, T/C (second compound 0.1 µM, first compound 0.0949 µM)?
A: The viability, T/C was 3.16%.

Q: What about the viability, T/C (second compound 0.1 µM, first compound 0.3 µM) of the same compound?
A: Its viability, T/C is 3.36%.

Q: What about the viability, T/C (second compound 0.1 µM, first compound 0.949 µM) of the same compound?
A: Its viability, T/C is 2.39%.

Q: And the viability, T/C (second compound 0.1 µM, first compound 3 µM)?
A: The viability, T/C was 2.52%.

Q: What about the viability, T/C (second compound 0.316 µM, first compound 0.00949 µM) of the same compound?
A: Its viability, T/C is 20.7%.

Q: What about the viability, T/C (second compound 0.316 µM, first compound 0.03 µM) of the same compound?
A: The viability, T/C was 5.59%.

Q: And the viability, T/C (second compound 0.316 µM, first compound 0.0949 µM)?
A: Its viability, T/C is 3.78%.

Q: What about the viability, T/C (second compound 0.316 µM, first compound 0.3 µM) of the same compound?
A: Its viability, T/C is 2.55%.

Q: And the viability, T/C (second compound 0.316 µM, first compound 0.949 µM)?
A: The viability, T/C was 2.77%.

Q: And the viability, T/C (second compound 0.316 µM, first compound 3 µM)?
A: The viability, T/C was 2.42%.

Q: What about the viability, T/C (second compound 1 µM, first compound 0.00949 µM) of the same compound?
A: Its viability, T/C is 19%.

Q: And the viability, T/C (second compound 1 µM, first compound 0.03 µM)?
A: The viability, T/C was 5.89%.

Q: And the viability, T/C (second compound 1 µM, first compound 0.0949 µM)?
A: The viability, T/C was 3.25%.

Q: What about the viability, T/C (second compound 1 µM, first compound 0.3 µM) of the same compound?
A: The viability, T/C was 3.12%.

Q: What about the viability, T/C (second compound 1 µM, first compound 0.949 µM) of the same compound?
A: Its viability, T/C is 2.59%.

Q: What about the viability, T/C (second compound 1 µM, first compound 3 µM) of the same compound?
A: Its viability, T/C is 2.05%.

Q: And the viability, T/C (second compound 3.16 µM, first compound 0.00949 µM)?
A: Its viability, T/C is 17%.

Q: What about the viability, T/C (second compound 3.16 µM, first compound 0.03 µM) of the same compound?
A: Its viability, T/C is 6.12%.

Q: What about the viability, T/C (second compound 3.16 µM, first compound 0.0949 µM) of the same compound?
A: The viability, T/C was 3.2%.

Q: What about the viability, T/C (second compound 3.16 µM, first compound 0.3 µM) of the same compound?
A: Its viability, T/C is 2.83%.

Q: And the viability, T/C (second compound 3.16 µM, first compound 0.949 µM)?
A: The viability, T/C was 3.06%.

Q: And the viability, T/C (second compound 3.16 µM, first compound 3 µM)?
A: The viability, T/C was 2.28%.

Q: And the viability, T/C (second compound 10 µM, first compound 0.00949 µM)?
A: The viability, T/C was 19.6%.

Q: What about the viability, T/C (second compound 10 µM, first compound 0.03 µM) of the same compound?
A: Its viability, T/C is 5.72%.

Q: What about the viability, T/C (second compound 10 µM, first compound 0.0949 µM) of the same compound?
A: Its viability, T/C is 3.65%.

Q: And the viability, T/C (second compound 10 µM, first compound 0.3 µM)?
A: The viability, T/C was 2.92%.

Q: And the viability, T/C (second compound 10 µM, first compound 0.949 µM)?
A: The viability, T/C was 2.88%.

Q: What about the viability, T/C (second compound 10 µM, first compound 3 µM) of the same compound?
A: Its viability, T/C is 2.55%.

Q: For `O=C(Nc1ccc(O)c(NS(=O)(=O)c2ccc(F)cc2)c1)c1ccc(-c2ccccc2)cc1`, which viability, T/C (compound 0.0316 µM) is on record?
A: Its viability, T/C is 108% and 109% and 99.2%.

Q: What about the viability, T/C (compound 0.1 µM) of the same compound?
A: The viability, T/C was 95.9% and 81.3% and 96.8%.

Q: And the viability, T/C (compound 0.316 µM)?
A: Its viability, T/C is 103% and 90% and 102%.

Q: And the viability, T/C (compound 1 µM)?
A: Its viability, T/C is 93.1% and 95.4% and 95.7%.

Q: What about the viability, T/C (compound 3.16 µM) of the same compound?
A: Its viability, T/C is 114% and 98.8% and 102%.

Q: And the viability, T/C (compound 10 µM)?
A: The viability, T/C was 98% and 116% and 94.2%.

Q: And the IC50 (curve of compound)?
A: The IC50 was > 10000 nM.
